Reference: patent US20230149398A1, “TOPICAL PHARMACEUTICAL COMPOSITIONS COMPRISING IMIDAZO[1,2-B]PYRIDAZINE COMPOUNDS” (BenevolentAI Bio Limited, priority 2020, published 2023)

System: RHE cultures (ZenSkin)
Assay: RHE irritancy test (MTT viability of RHE cultures)
Assay type: cell-based
Settings: 30 μL applied for 1 hour, MTT after 42 hours, relative to negative control (water), n=3
Procedure: RHE cultures (ZenSkin®) (surface area=0.33 cm^2) were equilibrated overnight in a humidified incubator at 37° C. and 5% CO2. The next day RHE were removed from the incubator and inspected for residual liquid on the apical surface. Excess moisture was removed with sterile cotton swab and 30 μL of a topical pharmaceutical composition was applied to triplicate cultures (n=3). Sterile water served as a negative control and 1% Triton X-100 served as positive control. Once treated, RHE cultures were returned to the incubator for 1 hour and then gently washed to remove test substance. The washed inserts were then transferred to new 12 well plates prefilled with fresh 0.5 mL media. […]
After 42-hour incubation, the tissue cultures were transferred to a new plate containing fresh MTT substrate in tissue media and placed in the incubator at 37° C. and 5% CO2 for 2 hours. […] Optical density was measured at 570 nm without using a reference filter. […]
Percent cell viability was calculated as follows: 100×[OD(sample)/OD(neg control)]. […] The test formulations were classified as irritant or non-irritant based on EU and GHS classification, according to which an irritant (R38/Category 2) is determined if the mean relative tissue viability of tissues exposed to test material is reduced below 50% of the negative control.

## triton X-100
  Mean percent viability: < 20%
